The source of these data is patent US6479487B1, “6, 9-disubstituted 2-[trans-(4-aminocyclohexyl)amino] purines” (Aventis Pharmaceuticals Inc., priority 1998, dated 2002).

Several values for one entry are separate records, joined by “and”; a condition that tells them apart may be missing. Identical values can stand only once. Counter-ions that a name gives are not always drawn. Like-named read-outs stand apart in the source and are kept apart here.

In one assay the test system is HCT-15. Description: In vitro tumor cell proliferation, HCT-15. The conditions noted are these: Homo sapiens, HCT-15, HCT-15; read-out: In vitro Tumor Cell Proliferation (IC50, μM) Colon HCT-15. Format: cell-based, human. The protocol: The proliferation of tumor cells was measured using a sulforhodamine B assay as described in Skehan, P., et al., J. Natl. Cancer Inst. […] Tumor cells were harvested with trypsin-EDTA, cells that excluded trypan blue were counted, added to 96-well plates and incubated overnight at 37° C. Drug was added to the wells following dilution in culture medium. Three days later, the medium was removed and replenished with medium containing fresh drug and incubated an additional 4 days. The cells were then fixed with 0.1 ml 10% trichloroacetic acid for 60 min at 4° C. The plates were rinsed five times with tap water, air-dried and stained for 30 min with 0.4% sulforhodamine B in 1% acetic acid and air-dried.
Alternatively, the CyQUANT cell proliferation assay was used to quantitate cell proliferation.
Alternatively, the CyQUANT cell proliferation assay was used to quantify tumor cell proliferation. Tumor cells were harvested with trypsin-EDTA, cells that excluded trypan blue were counted, added to 96-well plates and incubated overnight at 37° C. Drug was added to the wells following dilution in culture medium. Three days later the medium was removed and the plates frozen at −80° C. for at least 30 minutes.

The subject of a further assay is PC-3. The assay can be described thus: In vitro tumor cell proliferation, PC-3. The conditions noted are these: many values given with an undefined *, read-out: In vitro Tumor Cell Proliferation (IC50, μM) Prostate PC-3. Format: cell-based, human. Put shortly: (§1)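 SRB read-out: cells seeded overnight, 37° C; drug 3 d, medium plus fresh drug replaced, +4 d; TCA fix 60 min 4° C, 0.4% SRB stain 30 min. Alt. CyQUANT: drug 3 d, plates frozen −80° C before read.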

Another assay concerns HT-29. Description: In vitro tumor cell proliferation, HT-29. Format: cell-based, human. The conditions noted are these: many values given with an undefined *, read-out: In vitro Tumor Cell Proliferation (IC50, μM) Colon HT-29. The essentials:
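HT-29 cells seeded overnight at 37° C, then exposed to drug for 3 days, refed with fresh drug-containing medium for 4 more days. Proliferation read by sulforhodamine B staining after TCA fixation; alternatively by CyQUANT after freezing plates at −80° C following 3 days' drug exposure.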

The subject of a further assay is DU145. Description: In vitro tumor cell proliferation, DU145. It counts as cell-based, human. The conditions noted are these: many values given with an undefined *, read-out: In vitro Tumor Cell Proliferation (IC50, μM) Prostate DU145. Put shortly:
as §1

The subject of another assay is MDA-MB-231. Description: In vitro tumor cell proliferation, MDA-MB-231. It counts as cell-based, human. The following applies: sulforhodamine B or CyQUANT assay, many values given with an undefined *, read-out: In vitro Tumor Cell Proliferation (IC50, μM) Breast MDA-MB-231. Put shortly: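 Cells plated overnight at 37 °C, then exposed to drug for 3 days, refed with fresh drug and incubated 4 more days. Read-out by sulforhodamine B staining after TCA fixation; alternatively, CyQUANT after 3-day drug exposure and freezing at −80 °C.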

The test system of a further assay is DMS-114. Description: In vitro tumor cell proliferation, DMS-114. Format: cell-based, human. The conditions noted are these: many values given with an undefined *, read-out: In vitro Tumor Cell Proliferation (IC50, μM) Lung DMS-114. Put shortly:
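Human small cell lung carcinoma DMS-114 cells plated overnight, then drug-treated for 3 days, medium and drug renewed, and incubated 4 more days. Growth read by sulforhodamine B staining after TCA fixation; alternatively by CyQUANT after 3 days' drug exposure and freezing at −80 °C.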

The next assay deals with T1, cdk2/cyclin E (Homo sapiens, UniProt P24941).
T1 construct: made in house; host or cells: insect cells (baculovirus co-infection)
Description: Cyclin-Dependent Kinase 2 Assay (cdk2/cyclin E, GST-Rb substrate). It counts as biochemical. The conditions noted are these: recombinant cdk2/cyclin E, 10 μM ATP, 30 min at 30° C., several values in a cell = separate determinations, read-out: CDK-2 Inhibition IC50. How it is done: Substrate: GST-Rb as described above for cdk4/cyclin D1
Assay conditions for cdk2/cyclin E were identical to those for cdk4/cyclin D1 including the substrate. The concentration of recombinant cdk2/cyclin E in the assay was 0.1 μg per 100 μl assay. Incubation was for 30 min at 30° C.

In another assay the test system is A549. Description: In vitro tumor cell proliferation, A549. It counts as cell-based, human. The conditions noted are these: many values given with an undefined *, read-out: In vitro Tumor Cell Proliferation (IC50, μM) Lung A549. The essentials: as §1
Another assay has as its system MDA-MB-435. The assay can be described thus: In vitro tumor cell proliferation, MDA-MB-435. It counts as cell-based. The conditions noted are these: values given with an undefined *, read-out: In vitro Tumor Cell Proliferation (IC50, μM) Breast MDA-MB-435. The essentials:
as §1

The target of a further assay is T2, cdk4/cyclin D1 (Homo sapiens, UniProt P11802).
T2 construct: made in house; host or cells: Sf9 insect cells (Bac-to-Bac baculovirus, pFastBac)
T2 sequence (P11802 whole entry): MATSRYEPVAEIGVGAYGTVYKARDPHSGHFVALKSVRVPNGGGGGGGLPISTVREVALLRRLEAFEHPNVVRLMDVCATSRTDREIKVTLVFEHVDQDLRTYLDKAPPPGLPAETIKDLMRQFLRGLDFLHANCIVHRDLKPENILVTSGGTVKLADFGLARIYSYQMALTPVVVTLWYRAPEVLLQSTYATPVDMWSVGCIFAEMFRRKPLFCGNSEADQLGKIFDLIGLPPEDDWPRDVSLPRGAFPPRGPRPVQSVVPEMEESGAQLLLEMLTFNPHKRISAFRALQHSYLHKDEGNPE
T2 sequence (P24385 whole entry partner): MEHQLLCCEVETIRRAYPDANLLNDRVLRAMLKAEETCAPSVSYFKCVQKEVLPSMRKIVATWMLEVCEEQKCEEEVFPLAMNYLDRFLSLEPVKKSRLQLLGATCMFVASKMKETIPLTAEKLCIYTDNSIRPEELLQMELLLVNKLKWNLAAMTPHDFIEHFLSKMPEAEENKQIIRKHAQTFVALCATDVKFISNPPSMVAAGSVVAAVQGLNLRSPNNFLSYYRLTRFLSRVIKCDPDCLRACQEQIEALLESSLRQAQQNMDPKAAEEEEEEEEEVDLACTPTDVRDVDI
Description: Cyclin-dependent Kinase 4 Assay (cdk4/cyclin D1, GST-Rb substrate). It counts as biochemical. The following applies: cdk4/cyclin D1 insect cell lysate, 10 μM ATP, 30 min at 37° C., several values = separate determinations, read-out: CDK4 Inhibition IC50. Put shortly:
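Insect-cell lysate of coexpressed cdk4/cyclin D1 (0.1 μg) acts on GST-Rb (0.5 μg) bound to glutathione-Sepharose, in 50 mM HEPES pH 7.5, 10 mM MgCl2, 1 mM EGTA. Reaction runs 30 min at 37 °C, then is stopped by filtration and TNEN washes. Rb phosphorylation read by scintillation counting; IC50 derived.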

The subject of a further assay is Colo-205. Description: In vitro tumor cell proliferation, Colo-205. It counts as cell-based. The following applies: values given with an undefined *, read-out: In vitro Tumor Cell Proliferation (IC50, μM) Colon Colo-205. Put shortly:
as §1

[1] abbreviates: Homo sapiens, MDA-MB-231, MDA-MB-231.
[2] abbreviates: Homo sapiens, COLO 205, Colo-205.
The mark [3] stands for this setting: Homo sapiens, MDA-MB-435, MDA-MB-435.

As for `COc1ccc(CNc2nc(N[C@H]3CC[C@H](N)CC3)nc3c2ncn3C2CCCC2)c(OC)c1` [Example 17, 2-[Trans-(4-aminocyclohexyl)amino]-6-[(2,4-dimethoxybenzyl)amino]-9-cyclopentylpurine dihydrochloride], the IC50 with HCT-15 was 9.9 µM; in the assay on PC-3 (Homo sapiens, PC-3, PC-3), 4 µM; in the assay with HT-29 (Homo sapiens, HT-29, HT-29), 6.8 µM; in the assay with DU145 (DU145, dihydrochloride), 6.9 µM; in the assay with DU145 (Homo sapiens, DU-145, DU145) it was 3.6 µM; in the assay on MDA-MB-231 (setting [1]), 6.1 µM. For the same compound, the IC50 in the assay on MDA-MB-231 (MDA-MB-231, dihydrochloride) was found to be 7.9 µM; in the assay with DMS-114 (DMS-114, dihydrochloride), 5.8 µM; in the assay with DMS-114 (Homo sapiens, DMS-114, DMS-114), 5.3 µM; at cdk2/cyclin E it was 350 nM; in the assay with A549 (A549, dihydrochloride) it was 7.5 µM; in the assay with A549 (Homo sapiens, A549, A549) it was 6.8 µM.
As to `N[C@H]1CC[C@H](Nc2nc(NC3(CO)CCCC3)c3ncn(C4CCCC4)c3n2)CC1` [Example 146, (R,S)-2-[Trans-(4-aminocyclohexyl)amino]-6-[(1-hydroxymethyl)cyclopentylamino]-9-cyclopentylpurine dihydrochloride], the IC50 in the assay on MDA-MB-435 (MDA-MB-435, dihydrochloride) was 21 µM; in the assay with PC-3 (Homo sapiens, PC-3, PC-3), 11 µM; in the assay on PC-3 (PC-3, dihydrochloride), 10 µM; on cdk4/cyclin D1 it was 1600 nM and 810 nM and 500 nM; with HT-29 (HT-29, dihydrochloride), 11 µM; in the assay on HT-29 (Homo sapiens, HT-29, HT-29), 16 µM. Besides, the IC50 came out at 16 µM in the assay with DU145 (DU145, dihydrochloride); 12 µM in the assay on DU145 (Homo sapiens, DU-145, DU145); 12 µM in the assay on MDA-MB-231 (MDA-MB-231, dihydrochloride); 11 µM with DMS-114 (DMS-114, dihydrochloride); 164 nM at cdk2/cyclin E; 12 µM in the assay with Colo-205 (setting [2]). Also, the IC50 with A549 (Homo sapiens, A549, A549) turned out to be 12 µM.
Turning to `N[C@H]1CC[C@H](Nc2nc(NC3CCN(Cc4c(F)cccc4Cl)CC3)c3ncn(C4CCCC4)c3n2)CC1` [Example 147-n, 2-[Trans-(4-aminocyclohexyl)amino]-6-[4-[1-(2-chloro-6-fluorobenzyl)]piperidinylamino]-cyclopentylpurine trihydrochloride], the IC50 in the assay on MDA-MB-435 (setting [3]) is 0.89 µM; in the assay on MDA-MB-435 (MDA-MB-435, trihydrochloride) it was 1 µM; in the assay with PC-3 (Homo sapiens, PC-3, PC-3), 0.73 µM; with PC-3 (PC-3, trihydrochloride) it was 0.93 µM; at cdk4/cyclin D1, 1600 nM and 3100 nM; with HT-29 (HT-29, trihydrochloride) it was 0.64 µM. Further, the IC50 with HT-29 (Homo sapiens, HT-29, HT-29) is 0.71 µM; in the assay on DU145 (DU145, trihydrochloride), 0.59 µM; in the assay on DU145 (Homo sapiens, DU-145, DU145), 0.6 µM; in the assay with MDA-MB-231 (setting [1]), 0.81 µM; with MDA-MB-231 (MDA-MB-231, trihydrochloride), 0.72 µM; in the assay on DMS-114 (DMS-114, trihydrochloride) it was 0.8 µM. Further, the IC50 in the assay on DMS-114 (Homo sapiens, DMS-114, DMS-114) was 1.1 µM; on cdk2/cyclin E, 160 nM and 340 nM and 440 nM; in the assay on Colo-205 (Colo-205, trihydrochloride), 0.32 µM; in the assay with Colo-205 (setting [2]), 0.44 µM; with A549 (A549, trihydrochloride) it was 0.33 µM; with A549 (Homo sapiens, A549, A549), 0.39 µM.
With `N[C@H]1CC[C@H](Nc2nc(NC3CCN(Cc4cc(F)cc(F)c4)CC3)c3ncn(C4CCCC4)c3n2)CC1` [Example 147-g, 2-[Trans-(4-aminocyclohexyl)amino]-6-[4-1 1-(3.5-difluorobenzyl)]piperidinylamino]-9-cyclopentylpurine trihydrochloride], the IC50 in the assay on MDA-MB-435 (setting [3]) is 0.3 µM; in the assay on MDA-MB-435 (MDA-MB-435, trihydrochloride), 0.41 µM; in the assay with PC-3 (Homo sapiens, PC-3, PC-3) it was 0.21 µM; in the assay with PC-3 (PC-3, trihydrochloride) it was 0.39 µM; on cdk4/cyclin D1, 3500 nM and 2000 nM; in the assay with HT-29 (HT-29, trihydrochloride), 0.29 µM. The IC50 with DU145 (DU145, trihydrochloride) was 0.25 µM; in the assay on DU145 (Homo sapiens, DU-145, DU145), 0.22 µM; in the assay on MDA-MB-231 (setting [1]), 0.29 µM; in the assay with DMS-114 (DMS-114, trihydrochloride), 0.26 µM; in the assay on DMS-114 (Homo sapiens, DMS-114, DMS-114), 0.32 µM; on cdk2/cyclin E, 330 nM and 290 nM. The IC50 in the assay with Colo-205 (Colo-205, trihydrochloride) was 0.13 µM; in the assay with Colo-205 (setting [2]), 0.18 µM; in the assay with A549 (A549, trihydrochloride) it was 0.14 µM; with A549 (Homo sapiens, A549, A549), 0.19 µM.
`COc1cc(CN2CCC(Nc3nc(N[C@H]4CC[C@H](N)CC4)nc4c3ncn4C3CCCC3)CC2)cc(OC)c1` [Example 147-c, 2-[Trans-(4-aminocyclohexyl)amino]-6-[4-[1-(3,5-dimethoxybenzyl)]piperidinylamino-9-cyclopentylpurinetrihydrochloride]: the IC50 with MDA-MB-435 (setting [3]) was 0.33 µM; in the assay on MDA-MB-435 (MDA-MB-435, trihydrochloride), 0.34 µM; in the assay with PC-3 (Homo sapiens, PC-3, PC-3) it was 0.22 µM; in the assay on PC-3 (PC-3, trihydrochloride), 0.33 µM; at cdk4/cyclin D1, 670 nM and 600 nM; in the assay on HT-29 (HT-29, trihydrochloride) it was 0.3 µM. Also, the IC50 amounted to 0.32 µM in the assay with HT-29 (Homo sapiens, HT-29, HT-29); 0.3 µM in the assay with DU145 (DU145, trihydrochloride); 0.21 µM with DU145 (Homo sapiens, DU-145, DU145); 0.23 µM with MDA-MB-231 (setting [1]); 0.27 µM in the assay with MDA-MB-231 (MDA-MB-231, trihydrochloride); 0.32 µM with DMS-114 (DMS-114, trihydrochloride). In addition, the IC50 in the assay with DMS-114 (Homo sapiens, DMS-114, DMS-114) was 0.3 µM; at cdk2/cyclin E it was 560 nM and 270 nM and 450 nM; in the assay with Colo-205 (Colo-205, trihydrochloride), 0.2 µM; in the assay with Colo-205 (setting [2]) it was 0.19 µM; with A549 (A549, trihydrochloride), 0.24 µM; in the assay with A549 (Homo sapiens, A549, A549), 0.18 µM.
